Assay results reported in US20250051356A1, “RIFABUTIN ANALOGS FOR THE TREATMENT OF DISEASE” (priority 2021, published 2025).
≈ marks a conversion by molar mass, not a printed value. Read-outs that look alike come from different tables or passages of the source.

What was measured:
Format in all cases: cell-based
[1] = tested on: S. aureus (UAMS-1625 strain); test: MIC by broth microdilution against S. aureus; conditions: Staphylococcus aureus, read-out: MIC S. aureus
[2] = tested on: A. baumannii (HUMC1 strain); test: MIC by broth microdilution against A. baumannii in RPMI + 10% FCS; conditions: Acinetobacter baumannii, read-out: MIC A. baumannii
[3] = tested on: M. abscessus subsp. abscessus ATCC 19977; test: MIC against M. abscessus in Middlebrook 7H9 + ADC; conditions: Mycobacteroides abscessus
[4] = tested on: M. kansasii (ATCC 12478); test: MIC against M. kansasii in CAMHB + ADC; conditions: Mycobacterium kansasii, ATCC12478; ATCC 12478; CAMHB + ADC (5%); read-out: MIC M. kansasii
[5] = tested on: M. xenopi (ATCC 19250); test: MIC against M. xenopi in CAMHB + ADC; conditions: Mycobacterium xenopi, ATCC19250; ATCC 19250; CAMHB + ADC (5%); read-out: MIC M. xenopi
[6] = tested on: M. avium (ATCC 25291); test: MIC against M. avium in CAMHB + ADC; conditions: Mycobacterium avium, ATCC25291; ATCC 25291; CAMHB + ADC (5%); read-out: MIC M. avium
[7] = ATCC19977, ATCC 19977, 7H9 + ADC, read-out: MIC M. abscessus

| SMILES | MIC [1] [µg/mL] | MIC ([2]; HUMC1 strain, RPMI + 10% FCS) [µg/mL] | MIC [3, 7] [µg/mL] | MIC [4] [µg/mL] | MIC [5] [µg/mL] | MIC [6] [µg/mL] | MIC [2] [µg/mL] | MIC ([3]; ATCC19977, read-out: MIC M. abscessus) [µg/mL] |
| --- | --- | --- | --- | --- | --- | --- | --- | --- |
| CO[C@H]1/C=C/O[C@@]2(C)Oc3c(C)c(O)c4c(c3C2=O)C2=NC3(CCN(CC(C)C)CC3)NC2=C(NC(=O)/C(C)=C\C=C\[C@H](C)[C@H](O)[C@@H](C)[C@@H](O)[C@@H](C)[C@H](OC(=O)CC(=O)N2CCN(c3ccccc3)CC2)[C@@H]1C)C4=O [Compound 11] | 0.25 (≈ 0.241 µM) | 0.016 | 0.125 | 0.008 | 0.06 | 0.125 | – | – |
| CO[C@H]1/C=C/O[C@@]2(C)Oc3c(C)c(O)c4c(c3C2=O)C2=NC3(CCN(CC(C)C)CC3)NC2=C(NC(=O)/C(C)=C\C=C\[C@H](C)[C@H](O)[C@@H](C)[C@@H](O)[C@@H](C)[C@H](OC(=O)CC(=O)N2CCC(n3c(=O)[nH]c5cc(Cl)ccc53)CC2)[C@@H]1C)C4=O [Compound 47] | 1 (≈ 0.889 µM) | 0.125 | 0.5 | – | – | – | – | – |
| CO[C@H]1/C=C/O[C@@]2(C)Oc3c(C)c(O)c4c(c3C2=O)C2=NC3(CCN(CC(C)C)CC3)NC2=C(NC(=O)/C(C)=C\C=C\[C@H](C)[C@H](O)[C@@H](C)[C@@H](O)[C@@H](C)[C@H](OC(=O)CC(=O)N2CCC3(CC2)C(=O)NCN3c2ccccc2)[C@@H]1C)C4=O [Compound 48] | 0.25 (≈ 0.226 µM) | 0.03 | 0.5 | – | – | – | – | – |
| COc1cc(CC2CCN(C(=O)CC(=O)O[C@H]3[C@H](C)[C@H](O)[C@H](C)[C@@H](O)[C@@H](C)/C=C/C=C(/C)C(=O)NC4=C5NC6(CCN(CC(C)C)CC6)N=C5c5c(c(O)c(C)c6c5C(=O)[C@@](C)(O/C=C/[C@H](OC)[C@H]3C)O6)C4=O)CC2)cc(C(F)(F)F)c1 [Compound 51] | 2 (≈ 1.74 µM) | 0.06 | 1 | – | – | – | – | – |
| CO[C@H]1/C=C/O[C@@]2(C)Oc3c(C)c(O)c4c(c3C2=O)C2=NC3(CCN(CC(C)C)CC3)NC2=C(NC(=O)/C(C)=C\C=C\[C@H](C)[C@H](O)[C@@H](C)[C@@H](O)[C@@H](C)[C@H](OC(=O)CC(=O)N2CCC([C@@H](O)c3nccn3C)CC2)[C@@H]1C)C4=O [Compound 53] | 0.125 (≈ 0.117 µM) | ≤ 0.002 | 1 | – | – | – | – | – |
| CO[C@H]1/C=C/O[C@@]2(C)Oc3c(C)c(O)c4c(c3C2=O)C2=NC3(CCN(CC(C)C)CC3)NC2=C(NC(=O)/C(C)=C\C=C\[C@H](C)[C@H](O)[C@@H](C)[C@@H](O)[C@@H](C)[C@H](OC(=O)CC(=O)N2CCC(N3CCCCC3)CC2)[C@@H]1C)C4=O [Compound 58] | 0.03 (≈ 0.0288 µM) | ≤ 0.002 | 1 | – | – | – | – | – |
| CO[C@H]1/C=C/O[C@@]2(C)Oc3c(C)c(O)c4c(c3C2=O)C2=NC3(CCN(CC(C)C)CC3)NC2=C(NC(=O)/C(C)=C\C=C\[C@H](C)[C@H](O)[C@@H](C)[C@@H](O)[C@@H](C)[C@H](OC(=O)CC(=O)N2CCC(NC(=O)OC(C)(C)C)CC2)[C@@H]1C)C4=O [Compound 59] | 0.125 (≈ 0.116 µM) | 0.008 | 0.5 | – | – | – | – | – |
| CO[C@H]1/C=C/O[C@@]2(C)Oc3c(C)c(O)c4c(c3C2=O)C2=NC3(CCN(CC(C)C)CC3)NC2=C(NC(=O)/C(C)=C\C=C\[C@H](C)[C@H](O)[C@@H](C)[C@@H](O)[C@@H](C)[C@H](OC(=O)CC(=O)N2CCC(n3cccn3)CC2)[C@@H]1C)C4=O [Compound 60] | 0.03 (≈ 0.0293 µM) | ≤ 0.002 | 0.5 | – | – | – | – | – |
| CO[C@H]1/C=C/O[C@@]2(C)Oc3c(C)c(O)c4c(c3C2=O)C2=NC3(CCN(CC(C)C)CC3)NC2=C(NC(=O)/C(C)=C\C=C\[C@H](C)[C@H](O)[C@@H](C)[C@@H](O)[C@@H](C)[C@H](OC(=O)CC(=O)N2CCC(NS(=O)(=O)c3ccccc3)CC2)[C@@H]1C)C4=O [Compound 61] | 0.125 (≈ 0.112 µM) | – | – | – | – | – | 0.008 | 0.5 |
| CO[C@H]1/C=C/O[C@@]2(C)Oc3c(C)c(O)c4c(c3C2=O)C2=NC3(CCN(CC(C)C)CC3)NC2=C(NC(=O)/C(C)=C\C=C\[C@H](C)[C@H](O)[C@@H](C)[C@@H](O)[C@@H](C)[C@H](OC(=O)CC(=O)N2CCC(N3CCn5ccnc5C3)CC2)[C@@H]1C)C4=O [Compound 62] | 0.06 (≈ 0.0556 µM) | ≤ 0.002 | 1 | – | – | – | – | – |
| CO[C@H]1/C=C/O[C@@]2(C)Oc3c(C)c(O)c4c(c3C2=O)C2=NC3(CCN(CC(C)C)CC3)NC2=C(NC(=O)/C(C)=C\C=C\[C@H](C)[C@H](O)[C@@H](C)[C@@H](O)[C@@H](C)[C@H](OC(=O)CC(=O)N2CC(Nc3ccc(F)cc3)C2)[C@@H]1C)C4=O [Compound 63] | 0.25 (≈ 0.241 µM) | 0.016 | 0.5 | – | – | – | – | – |
| CO[C@H]1/C=C/O[C@@]2(C)Oc3c(C)c(O)c4c(c3C2=O)C2=NC3(CCN(CC(C)C)CC3)NC2=C(NC(=O)/C(C)=C\C=C\[C@H](C)[C@H](O)[C@@H](C)[C@@H](O)[C@@H](C)[C@H](OC(=O)CC(=O)N2CC(n3ccnn3)C2)[C@@H]1C)C4=O [Compound 64] | 0.06 (≈ 0.0602 µM) | ≤ 0.002 | 1 | – | – | – | – | – |
